Measurements taken from patent US10781224B2, “Bis(oxymethyl)phosphinic acid and biogenic metal salts thereof as regulators of plant growth and development” (priority 2016, dated 2020).
Values joined by “and” are separate entries in the source; they are usually repeats but may differ in a detail not shown here. Identical values can stand only once.

Assays:
[1] = tested on: winter wheat (Vershin variety); experiment: Winter wheat seed treatment with BHMPA salts: germination energy and germination rate; format: in vivo
How it was run: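 Corn, winter wheat and rice seeds (50 per dish, on filter paper) were soaked for 1 h in BHMPA or its metal salts at 1·10^−6-1·10^−12%, with water as control. Germination energy was read on day 4 and germination rate on day 8 for wheat and day 7 for rice and corn, following GOST 12038-84, as the mean of four replicates.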

rice (Diamant variety) = experiment: Rice seed treatment with BHMPA salts: germinating power; format: in vivo; conditions: for Length, root / Length, root, + % to control / Length, sprout / Length, sprout, + % to control / Mass, dry, root / Mass, dry, root, + % to control / Mass, dry, sprout / Mass, dry, sprout, + % to control / Mass, wet, root / Mass, wet, root, + % to control / Mass, wet, sprout / Mass, wet, sprout, + % to control: rice seed treatment
How it was run: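 Seeds (50 per Petri dish on two layers of filter paper) soaked 1 h in BHMPA or its Ca, Mg, Na, Co, Mn, Cu or Zn salts at 1·10^−6-1·10^−12%, with water controls. Germination energy read on day 4, germination on day 8 (wheat) or day 7 (rice, corn), as % means of four replicates. Germinating power taken as root and sprout length plus wet and dry mass per 100 seedlings.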

[2] = winter wheat Vershin, 1·10^−6% solution
[3] = winter wheat Vershin, 1·10^−7% solution
[4] = winter wheat Vershin, 1·10^−8% solution
[5] = winter wheat Vershin, 1·10^−9% solution
[6] = winter wheat Vershin, 1·10^−10% solution
[7] = winter wheat Vershin, 1·10^−11% solution
[8] = winter wheat Vershin, 1·10^−12% solution
[9] = winter wheat, comparative study vs Melaphen, 1·10^−9% solution
[10] = comparison with Melaphen (Table XXXIII), solution 1 · 10^−10%
[11] = experimental solution 1 · 10^−6%
[12] = experimental solution 1 · 10^−7%
[13] = experimental solution 1 · 10^−8%
[14] = experimental solution 1 · 10^−9%
[15] = experimental solution 1 · 10^−10%
[16] = experimental solution 1 · 10^−11%
[17] = experimental solution 1 · 10^−12%
[18] = rice, vs control, 1·10^−10% solution

Substance: Copper BHMPA Salt [Cu-salt]
- Germination energy [1, 2]: 81.0%
- Germination rate [1, 2]: 84.0%
- Germination energy [1, 3]: 87.3%
- Germination rate [1, 3]: 90.0%
- Germination energy [1, 4]: 91.4%
- Germination rate [1, 4]: 96.0%
- Germination energy [1, 5]: 94.9%
- Germination rate [1, 5]: 98.0% and 94.3%
- Germination rate ([1]; winter wheat Vershin, 1·10^−9% solution, listed as Cu): 98.0%
- Germination energy [1, 6]: 92.1%
- Germination rate [1, 6]: 96.7%
- Germination energy [1, 7]: 91.7%
- Germination rate [1, 7]: 94.0%
- Germination energy [1, 8]: 87.5%
- Germination rate [1, 8]: 90.0%
- Germination energy [1, 9]: 94.7%
- Germination rate [1, 9]: 98.7%
- optimum concentration for treating rice seeds before sowing (rice (Diamant variety); rice): 1·10^−10%
- Length, root (rice (Diamant variety); [10]): 6.3 cm
- Length, root, + % to control (rice (Diamant variety); [10]): 31%
- Length, sprout (rice (Diamant variety); [10]): 3.3 cm
- Length, sprout, + % to control (rice (Diamant variety); [10]): 27%
- Mass, dry, root (rice (Diamant variety); [10]): 0.26 g/100 plantlings
- Mass, dry, root, + % to control (rice (Diamant variety); [10]): 24%
- Mass, dry, sprout (rice (Diamant variety); [10]): 0.27 g/100 plantlings
- Mass, dry, sprout, + % to control (rice (Diamant variety); [10]): 8%
- Mass, wet, root (rice (Diamant variety); [10]): 1.35 g/100 plantlings
- Mass, wet, root, + % to control (rice (Diamant variety); [10]): 38%
- Mass, wet, sprout (rice (Diamant variety); [10]): 2.25 g/100 plantlings
- Mass, wet, sprout, + % to control (rice (Diamant variety); [10]): 49%
- Length, root (rice (Diamant variety); [11]): 5.4 cm
- Length, root, + % to control (rice (Diamant variety); [11]): 6%
- Length, sprout (rice (Diamant variety); [11]): 2.6 cm
- Length, sprout, + % to control (rice (Diamant variety); [11]): 8%
- Mass, dry, root (rice (Diamant variety); [11]): 0.19 g/100 plantlings
- Mass, dry, root, + % to control (rice (Diamant variety); [11]): 12%
- Mass, dry, sprout (rice (Diamant variety); [11]): 0.26 g/100 plantlings
- Mass, dry, sprout, + % to control (rice (Diamant variety); [11]): 13%
- Mass, wet, root (rice (Diamant variety); [11]): 0.93 g/100 plantlings
- Mass, wet, root, + % to control (rice (Diamant variety); [11]): 13%
- Mass, wet, sprout (rice (Diamant variety); [11]): 1.47 g/100 plantlings
- Mass, wet, sprout, + % to control (rice (Diamant variety); [11]): 6.5%
- Length, root (rice (Diamant variety); [12]): 5.5 cm
- Length, root, + % to control (rice (Diamant variety); [12]): 8%
- Length, sprout (rice (Diamant variety); [12]): 2.7 cm
- Length, sprout, + % to control (rice (Diamant variety); [12]): 12.5%
- Mass, dry, root (rice (Diamant variety); [12]): 0.21 g/100 plantlings
- Mass, dry, root, + % to control (rice (Diamant variety); [12]): 23.5%
- Mass, dry, sprout (rice (Diamant variety); [12]): 0.29 g/100 plantlings
- Mass, dry, sprout, + % to control (rice (Diamant variety); [12]): 26%
- Mass, wet, root (rice (Diamant variety); [12]): 1.03 g/100 plantlings
- Mass, wet, root, + % to control (rice (Diamant variety); [12]): 26%
- Mass, wet, sprout (rice (Diamant variety); [12]): 1.61 g/100 plantlings
- Mass, wet, sprout, + % to control (rice (Diamant variety); [12]): 17%
- Length, root (rice (Diamant variety); [13]): 5.7 cm
- Length, root, + % to control (rice (Diamant variety); [13]): 12%
- Length, sprout (rice (Diamant variety); [13]): 2.8 cm
- Length, sprout, + % to control (rice (Diamant variety); [13]): 17%
- Mass, dry, root (rice (Diamant variety); [13]): 0.23 g/100 plantlings
- Mass, dry, root, + % to control (rice (Diamant variety); [13]): 35%
- Mass, dry, sprout (rice (Diamant variety); [13]): 0.31 g/100 plantlings
- Mass, dry, sprout, + % to control (rice (Diamant variety); [13]): 35%
- Mass, wet, root (rice (Diamant variety); [13]): 1.09 g/100 plantlings
- Mass, wet, root, + % to control (rice (Diamant variety); [13]): 33%
- Mass, wet, sprout (rice (Diamant variety); [13]): 1.74 g/100 plantlings
- Mass, wet, sprout, + % to control (rice (Diamant variety); [13]): 26%
- Length, root (rice (Diamant variety); [14]): 5.9 cm
- Length, root, + % to control (rice (Diamant variety); [14]): 16%
- Length, sprout (rice (Diamant variety); [14]): 2.8 cm
- Length, sprout, + % to control (rice (Diamant variety); [14]): 17%
- Mass, dry, root (rice (Diamant variety); [14]): 0.25 g/100 plantlings
- Mass, dry, root, + % to control (rice (Diamant variety); [14]): 47%
- Mass, dry, sprout (rice (Diamant variety); [14]): 0.33 g/100 plantlings
- Mass, dry, sprout, + % to control (rice (Diamant variety); [14]): 43%
- Mass, wet, root (rice (Diamant variety); [14]): 1.16 g/100 plantlings
- Mass, wet, root, + % to control (rice (Diamant variety); [14]): 41%
- Mass, wet, sprout (rice (Diamant variety); [14]): 1.92 g/100 plantlings
- Mass, wet, sprout, + % to control (rice (Diamant variety); [14]): 39%
- Length, root (rice (Diamant variety); [15]): 6.0 cm
- Length, root, + % to control (rice (Diamant variety); [15]): 18%
- Length, sprout (rice (Diamant variety); [15]): 2.9 cm
- Length, sprout, + % to control (rice (Diamant variety); [15]): 21%
- Mass, dry, root (rice (Diamant variety); [15]): 0.27 g/100 plantlings
- Mass, dry, root, + % to control (rice (Diamant variety); [15]): 59%
- Mass, dry, sprout (rice (Diamant variety); [15]): 0.36 g/100 plantlings
- Mass, dry, sprout, + % to control (rice (Diamant variety); [15]): 56.5%
- Mass, wet, root (rice (Diamant variety); [15]): 1.22 g/100 plantlings
- Mass, wet, root, + % to control (rice (Diamant variety); [15]): 49%
- Mass, wet, sprout (rice (Diamant variety); [15]): 2.11 g/100 plantlings
- Mass, wet, sprout, + % to control (rice (Diamant variety); [15]): 53%
- Length, root (rice (Diamant variety); [16]): 5.9 cm
- Length, root, + % to control (rice (Diamant variety); [16]): 16%
- Length, sprout (rice (Diamant variety); [16]): 2.7 cm
- Length, sprout, + % to control (rice (Diamant variety); [16]): 12.5%
- Mass, dry, root (rice (Diamant variety); [16]): 0.24 g/100 plantlings
- Mass, dry, root, + % to control (rice (Diamant variety); [16]): 41%
- Mass, dry, sprout (rice (Diamant variety); [16]): 0.32 g/100 plantlings
- Mass, dry, sprout, + % to control (rice (Diamant variety); [16]): 39%
- Mass, wet, root (rice (Diamant variety); [16]): 1.12 g/100 plantlings
- Mass, wet, root, + % to control (rice (Diamant variety); [16]): 36.5%
- Mass, wet, sprout (rice (Diamant variety); [16]): 1.87 g/100 plantlings
- Mass, wet, sprout, + % to control (rice (Diamant variety); [16]): 35.5%
- Length, root (rice (Diamant variety); [17]): 5.6 cm
- Length, root, + % to control (rice (Diamant variety); [17]): 10%
- Length, sprout (rice (Diamant variety); [17]): 2.6 cm
- Length, sprout, + % to control (rice (Diamant variety); [17]): 8%
- Mass, dry, root (rice (Diamant variety); [17]): 0.20 g/100 plantlings
- Mass, dry, root, + % to control (rice (Diamant variety); [17]): 18%
- Mass, dry, sprout (rice (Diamant variety); [17]): 0.27 g/100 plantlings
- Mass, dry, sprout, + % to control (rice (Diamant variety); [17]): 17%
- Mass, wet, root (rice (Diamant variety); [17]): 1.01 g/100 plantlings
- Mass, wet, root, + % to control (rice (Diamant variety); [17]): 23%
- Mass, wet, sprout (rice (Diamant variety); [17]): 1.75 g/100 plantlings
- Mass, wet, sprout, + % to control (rice (Diamant variety); [17]): 27%
- dry mass of the roots increased by (rice (Diamant variety); [18]): 59%
- dry mass of the sprouts increased by (rice (Diamant variety); [18]): 56.5%
- length of the root increased by (rice (Diamant variety); [18]): 18%
- length of the sprout increased by (rice (Diamant variety); [18]): 21%
- wet mass of the roots increased by (rice (Diamant variety); [18]): 49%
- wet mass of the sprouts increased by (rice (Diamant variety); [18]): 53%
